Source: patent US20240123078A1, “COMPOUNDS AND METHODS FOR MODULATING IMMUNE-RELATED PROTEINS” (Vividion Therapeutics, Inc., priority 2019, published 2024)

How the values were obtained:
Assay in all cases: Cysteine reactivity ABPP
Format in all cases: binding
[1] = molecular target: T1, PDIA3 Protein disulfide-isomerase A3 C57, C60 (P30101) (Homo sapiens, UniProt P30101)
T1 construct: endogenous in cells; host or cells: primary human T cells
T1 sequence (P30101 25-505): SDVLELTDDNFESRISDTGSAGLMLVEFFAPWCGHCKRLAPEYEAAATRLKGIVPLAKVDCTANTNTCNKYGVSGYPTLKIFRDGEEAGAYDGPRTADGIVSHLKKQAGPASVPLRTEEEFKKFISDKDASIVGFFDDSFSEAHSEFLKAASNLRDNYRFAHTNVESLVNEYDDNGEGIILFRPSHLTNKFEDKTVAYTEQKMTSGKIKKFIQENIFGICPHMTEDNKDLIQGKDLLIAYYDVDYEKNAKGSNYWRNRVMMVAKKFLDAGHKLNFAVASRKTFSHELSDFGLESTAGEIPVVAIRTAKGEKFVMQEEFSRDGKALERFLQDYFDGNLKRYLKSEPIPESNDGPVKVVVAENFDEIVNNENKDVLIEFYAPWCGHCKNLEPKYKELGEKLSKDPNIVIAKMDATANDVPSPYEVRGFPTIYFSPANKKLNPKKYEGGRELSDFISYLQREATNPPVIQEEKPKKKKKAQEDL
Experimental: (§1) Activated or expanded primary human T cells were re-suspended in RPMI (1×10^6 cells/mL) containing 10% fetal bovine serum (FBS), penicillin (100 U/mL), streptomycin ([…]), and L-glutamine (2 mM). The cells were treated with DMSO or compounds for 3 h, pelleted (524 g, 5 min), washed with PBS, and lysed by sonication (2×8 pulses). Soluble and particulate proteomic fractions were separated by ultracentrifugation (100,000 g, 45 min), and protein concentration was normalized to 1.7 mg/mL using a standard DC protein assay (Bio-Rad). The resulting proteomes were analyzed by competitive isotopic Tandem Orthogonal Proteolysis Activity-Based Protein Profiling (isoTOP-ABPP).
(§2) The heavy/light isoTOP-ABPP ratios (R values) for each unique peptide (DMSO/compound treated) were quantified with in-house CIMAGE software (Weerapana et al., 2010) using default parameters (3 MS1 acquisitions per peak and signal to noise threshold set to 2.5). Site-specific engagement of cysteine residues was assessed by blockade of IA-alkyne probe labeling. […] Ratios for unique peptide sequences were calculated for each experiment; overlapping peptides with the same modified cysteine (e.g., different charge states, elution times or tryptic termini) were grouped together and the median ratio was reported as the final ratio (R). Additionally, ratios for peptide sequences containing multiple cysteines were grouped together. When aggregating data across experimental replicates, the mean of each experimental median R was reported. The peptide ratios reported by CIMAGE were further filtered to ensure the removal or correction of low-quality ratios in each individual dataset. The quality filters applied were the following: removal of half-tryptic peptides, removal of peptides with more than one tryptic miscleaved, removal of peptides with R=20 and only a single MS2 event triggered during the elution of the parent ion, removal of non-unique peptides. Further filtering was then performed as described below for each experiment type.
(§3) Samples (500 μL, 1.7 mg/mL) were treated with iodoacetamide desthiobiotin (IA-DTB, 5 μL of 10 mM stock in DMSO, final concentration: 100 μM) for 1 h at ambient temperature. Ice-cold MeOH (500 μL) and CHCl3 (200 μL) were then added, the mixture was vortexed and centrifuged (10,000 g, 10 min, 4° C.) to afford a protein disc at the interface of CHCl3 and aqueous layers. Both layers were aspirated without perturbing the disk, which was re-suspended in cold methanol (500 μL) and CHCl3 (200 μL) by sonication. The proteins were pelleted (10,000 g, 10 min, 4° C.), and the resulting pellets were re-suspended in a buffer (90 μL) containing 9M urea, 10 mM DTT and 50 mM triethylammonium bicarbonate ( 1/20 dilution of 1.0 M stock solution, pH 8.5) by thorough pipetting up and down. The resulting mixture was heated at 65° C. for 20 min. Sample was cooled to room temp, iodoacetamide (10 μL, 500 mM solution in H2O) was added, and the samples were incubated at 37° C. for 30 min with shaking.
(§4) At individual TMT experiment level, the following filters were applied to remove low-quality peptides: removal of non-unique peptides; removal of half-tryptic peptides; removal of peptides with more than one internal miscleaved site; removal of peptides with low (<10,000) sum of reporter ion intensities for control channels, and peptides with high variation between the replicate control channels (coefficient of variance >0.5). R values (compound-treated vs. DMSO-treated) for each peptide entry were calculated using the reporter ion intensities of DMSO and compound treated TMT channels for each treatment group with a maximum ratio cap of 20. […]

[2] = molecular target: T2, ATP2A2 Sarcoplasmic/endoplasmic reticulum calcium ATPase 2 C997 (P16615) (Homo sapiens, UniProt P16615)
T2 construct: endogenous in cells; host or cells: primary human T cells
Experimental: as §1, §2, §3, §4

[3] = molecular target: T3, CBLB E3 ubiquitin-protein ligase CBL-B C686 (Q13191) (Homo sapiens, UniProt Q13191)
T3 construct: endogenous in cells; host or cells: primary human T cells
Experimental: as §1, §2, §3, §4

[4] = molecular target: T4, ACAT1 Acetyl-CoA acetyltransferase, mitochondrial C119 (P24752) (Homo sapiens, UniProt P24752)
T4 construct: endogenous in cells; host or cells: primary human T cells
T4 sequence (P24752 34-427): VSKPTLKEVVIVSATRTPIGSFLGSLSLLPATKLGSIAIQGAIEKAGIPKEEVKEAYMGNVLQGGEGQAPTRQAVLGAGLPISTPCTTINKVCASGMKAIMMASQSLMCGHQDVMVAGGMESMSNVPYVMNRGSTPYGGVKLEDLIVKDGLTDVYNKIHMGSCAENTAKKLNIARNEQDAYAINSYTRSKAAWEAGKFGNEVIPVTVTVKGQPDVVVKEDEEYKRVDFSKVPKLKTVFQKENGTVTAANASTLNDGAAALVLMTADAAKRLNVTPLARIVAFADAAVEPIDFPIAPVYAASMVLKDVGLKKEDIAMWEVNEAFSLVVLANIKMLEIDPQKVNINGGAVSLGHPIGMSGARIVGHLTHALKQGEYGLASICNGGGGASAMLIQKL
Experimental: as §1, §2, §3, §4

T3 sequence (Q13191 whole entry): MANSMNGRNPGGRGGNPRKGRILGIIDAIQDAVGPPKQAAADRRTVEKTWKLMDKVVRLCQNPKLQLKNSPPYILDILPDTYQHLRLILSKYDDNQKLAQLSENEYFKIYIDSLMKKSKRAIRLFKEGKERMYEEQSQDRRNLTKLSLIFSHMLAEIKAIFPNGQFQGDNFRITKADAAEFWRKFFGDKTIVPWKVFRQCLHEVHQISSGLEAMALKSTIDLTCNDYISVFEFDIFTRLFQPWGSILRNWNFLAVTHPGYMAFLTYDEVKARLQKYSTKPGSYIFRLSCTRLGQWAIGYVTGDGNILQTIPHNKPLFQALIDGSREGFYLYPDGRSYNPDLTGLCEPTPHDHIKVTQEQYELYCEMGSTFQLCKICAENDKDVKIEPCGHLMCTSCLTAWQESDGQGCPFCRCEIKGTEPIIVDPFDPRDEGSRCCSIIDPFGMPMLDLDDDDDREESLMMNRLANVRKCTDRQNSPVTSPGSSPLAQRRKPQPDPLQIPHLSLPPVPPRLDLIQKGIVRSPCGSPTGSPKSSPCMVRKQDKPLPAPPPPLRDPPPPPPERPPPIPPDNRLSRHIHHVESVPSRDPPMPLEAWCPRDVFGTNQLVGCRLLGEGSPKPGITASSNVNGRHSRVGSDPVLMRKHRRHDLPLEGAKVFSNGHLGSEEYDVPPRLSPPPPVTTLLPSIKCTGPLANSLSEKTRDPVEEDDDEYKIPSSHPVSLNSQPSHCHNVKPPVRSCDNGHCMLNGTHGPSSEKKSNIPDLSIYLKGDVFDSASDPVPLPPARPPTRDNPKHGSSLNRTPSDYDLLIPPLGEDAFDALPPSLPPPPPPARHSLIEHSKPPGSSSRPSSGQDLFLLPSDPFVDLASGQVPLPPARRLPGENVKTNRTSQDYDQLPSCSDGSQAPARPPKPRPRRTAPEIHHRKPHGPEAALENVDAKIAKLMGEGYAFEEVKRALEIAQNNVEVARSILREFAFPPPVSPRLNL
T2 sequence (P16615 whole entry, one chain of several): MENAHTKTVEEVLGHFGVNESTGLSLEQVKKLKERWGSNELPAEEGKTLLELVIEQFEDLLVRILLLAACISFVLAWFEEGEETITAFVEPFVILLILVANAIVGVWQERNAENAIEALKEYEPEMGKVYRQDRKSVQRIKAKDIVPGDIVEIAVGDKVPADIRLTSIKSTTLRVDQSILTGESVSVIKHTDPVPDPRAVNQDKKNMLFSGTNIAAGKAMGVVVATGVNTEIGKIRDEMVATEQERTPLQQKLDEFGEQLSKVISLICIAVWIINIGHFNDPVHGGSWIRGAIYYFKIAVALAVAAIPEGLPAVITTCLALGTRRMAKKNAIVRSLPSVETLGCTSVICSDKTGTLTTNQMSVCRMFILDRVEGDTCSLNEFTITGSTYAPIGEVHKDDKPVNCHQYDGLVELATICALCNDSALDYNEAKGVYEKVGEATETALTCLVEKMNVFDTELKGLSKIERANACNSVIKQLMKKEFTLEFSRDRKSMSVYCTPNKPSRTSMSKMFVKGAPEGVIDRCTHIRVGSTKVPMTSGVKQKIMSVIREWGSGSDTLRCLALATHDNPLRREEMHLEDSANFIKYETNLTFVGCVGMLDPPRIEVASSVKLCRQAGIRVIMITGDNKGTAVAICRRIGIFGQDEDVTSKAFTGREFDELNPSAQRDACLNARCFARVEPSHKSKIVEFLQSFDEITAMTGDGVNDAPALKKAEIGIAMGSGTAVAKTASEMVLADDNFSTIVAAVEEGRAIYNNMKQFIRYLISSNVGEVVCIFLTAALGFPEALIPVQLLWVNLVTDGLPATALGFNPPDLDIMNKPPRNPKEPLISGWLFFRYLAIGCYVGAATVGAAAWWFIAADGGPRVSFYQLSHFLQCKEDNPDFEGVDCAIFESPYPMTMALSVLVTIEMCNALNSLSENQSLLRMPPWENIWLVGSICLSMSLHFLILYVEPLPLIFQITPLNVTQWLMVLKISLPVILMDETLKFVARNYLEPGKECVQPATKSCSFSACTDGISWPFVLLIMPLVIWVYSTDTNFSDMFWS

SMILES	Cysteine reactivity proteomic data [1]; 100	Cysteine reactivity proteomic data [2]; 100	Cysteine reactivity proteomic data ([3]; 100 μM)	Cysteine reactivity proteomic data ([3]; 500 μM)	Cysteine reactivity proteomic data ([4]; 100 μM)	Cysteine reactivity proteomic data ([4]; 500 μM)	Cysteine reactivity proteomic data ([1]; 500 μM)	Cysteine reactivity proteomic data ([2]; 500 μM)
O=C(CCl)N1CCN(S(=O)(=O)c2ccc(-c3ccncc3)cc2)CC1 [Compound B9]	61.24	22.19	25.6002	76.6489	−38.85	24.795	–	–
C=CC(=O)N(Cc1cccc(Cl)c1Cl)c1ccc(Oc2ccccc2)c(C(F)(F)F)c1 [Compound K4]	–	–	–	2.418	–	−0.3282	7.07	61.48
